Reference: patent US20250388576A1, “PYRIDONOPYRIMIDINE DERIVATIVE AS RSK INHIBITOR AND USE THEREOF” (EAST CHINA NORMAL UNIVERSITY, priority 2022, published 2025)

Tests used:
RSK4 kinase = RSK4 kinase (Homo sapiens (Human), UniProt Q9UK32); test: In vitro enzyme activity assay (Kinase-Glo), RSK4; format: biochemical; conditions: 10 μM ATP, 30° C., 40 minutes
renal cancer cells ACHN = test: Anti-cell proliferation activity (CCK8), ACHN; format: cell-based; conditions: Homo sapiens, 72 hours
[1] = tested on: esophageal squamous cell carcinoma cells KYSE510; test: Anti-cell proliferation activity (CCK8), KYSE510; format: cell-based; conditions: Homo sapiens, KYSE-510, 72 hours
[2] = tested on: esophageal squamous cell carcinoma cells KYSE150; test: Anti-cell proliferation activity (CCK8), KYSE150; format: cell-based; conditions: Homo sapiens, KYSE-150, 72 hours
[3] = tested on: esophageal squamous cell carcinoma cells TE10; test: Anti-cell proliferation activity (CCK8), TE10; format: cell-based; conditions: Homo sapiens, TE-10, 72 hours

Chain of RSK4 kinase (Q9UK32 whole entry): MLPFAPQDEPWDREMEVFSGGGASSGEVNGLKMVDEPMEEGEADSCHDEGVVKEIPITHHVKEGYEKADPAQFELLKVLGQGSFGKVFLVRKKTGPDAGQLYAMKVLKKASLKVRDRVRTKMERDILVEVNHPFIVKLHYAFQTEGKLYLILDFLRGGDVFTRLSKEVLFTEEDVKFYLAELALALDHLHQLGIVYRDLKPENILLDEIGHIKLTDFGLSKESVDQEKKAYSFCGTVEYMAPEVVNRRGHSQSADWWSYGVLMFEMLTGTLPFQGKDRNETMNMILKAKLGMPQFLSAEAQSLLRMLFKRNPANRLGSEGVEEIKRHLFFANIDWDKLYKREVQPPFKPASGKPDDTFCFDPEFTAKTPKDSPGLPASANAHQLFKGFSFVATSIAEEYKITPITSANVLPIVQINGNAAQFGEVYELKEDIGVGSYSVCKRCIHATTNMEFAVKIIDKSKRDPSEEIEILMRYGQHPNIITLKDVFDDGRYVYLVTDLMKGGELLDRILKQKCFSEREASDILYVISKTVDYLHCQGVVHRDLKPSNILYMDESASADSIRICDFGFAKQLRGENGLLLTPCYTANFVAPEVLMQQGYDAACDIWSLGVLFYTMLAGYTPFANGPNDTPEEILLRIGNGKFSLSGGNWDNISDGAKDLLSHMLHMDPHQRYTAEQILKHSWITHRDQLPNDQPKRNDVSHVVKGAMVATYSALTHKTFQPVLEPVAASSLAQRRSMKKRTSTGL

Structure (SMILES)	IC50 (RSK4 kinase) [nM]	other results
Cc1cc(=O)n(C2CCCC2)c2nc(Nc3ccc4[nH]c(=O)oc4c3)ncc12 [Compound 008, 6-((8-Cyclopentyl-5-methyl-7-oxo-7,8-dihydropyrido[2,3-d]pyrimidin-2-yl)amino)benzo[d]oxazol-2(3H)-one]	10800 ± 2030	
Cc1cc(=O)n(C2CCOC2)c2nc(Nc3ccc4[nH]ncc4c3)ncc12 (stereo not drawn) [Compound 021, 2-((1H-indazol-5-yl)amino)-5-methyl-8-(tetrahydrofuran-3-yl)pyrido[2,3-d]pyrimidin-7(8H)-one]	392 ± 162	
Cc1cc(=O)n(C2CCC(F)(F)C2)c2nc(Nc3ccc4c(c3)CC(=O)N4)ncc12 (stereo not drawn) [Compound 015, 8-(3,3-Difluorocyclopentyl)-5-methyl-2-((2-oxoindolin-5-yl)amino)pyrido[2,3-d]pyrimidin-7(8H)-one]	46 ± 4	
Cc1cc(=O)n(C2CCCC2)c2nc(Nc3ccc4[nH]nnc4c3)ncc12 [Compound 004, 2-((1H-benzo[d][1,2,3]triazol-5-yl)amino)-8-cyclopentyl-5-methylpyrido[2,3-d]pyrimidin-7(8H)-one]	3020 ± 673	
Cc1c(Br)c(=O)n(C2CCCC2)c2nc(Nc3ccc4c(c3)CC(=O)N4)ncc12 [Compound 014, 6-Bromo-8-cyclopentyl-5-methyl-2-(2-oxoindolin-5-ylamino)pyrido[2,3-d]pyrimidin-7(8H)-one]	214 ± 20	
CC(=O)N(c1cc(F)c(O)c(F)c1)c1ncc2c(C)cc(=O)n(C3CCCC3)c2n1 [Compound 002, N-(8-Cyclopentyl-5-methyl-7-oxo-7,8-dihydropyrido[2,3-d]pyrimidin-2-yl)-N-(3,5-difluoro-4-hydroxyphenyl)acetamide]	139 ± 19	
Cc1cc(=O)n(C2CCCC2)c2nc(Nc3ccc(F)c4[nH]ncc34)ncc12 [Compound 010]	180 ± 16	
CC(C)CCN1c2nc(Nc3cc(F)c(O)c(F)c3)ncc2N(C)C(=O)C1C (stereo not drawn) [BI-D1870, reference compound]		IC50 (renal cancer cells ACHN): > 10000 nM; IC50 [3]: 3860 ± 760 nM; IC50 [1]: 11700 ± 2580 nM; IC50 [2]: 20200 ± 1560 nM
Cc1cc(=O)n(C2CCCC2)c2nc(Nc3ccc4[nH]nc(F)c4c3)ncc12 [Compound 012, 8-Cyclopentyl-2-[(3-fluoro-1H-indazol-5-yl)amino]-5-methylpyrido[2,3-d]pyrimidin-7(8H)-one]	280 ± 54	
Cc1cc(=O)n(C2CCCCC2)c2nc(Nc3ccc4[nH]ncc4c3)ncc12 [Compound 019, 2-((1H-indazol-5-yl)amino)-5-methyl-8-(cyclohexyl)pyrido[2,3-d]pyrimidin-7(8H)-one]	86 ± 41	
Cc1cc(=O)n(C2CCCCCC2)c2nc(Nc3ccc4[nH]ncc4c3)ncc12 [Compound 020, 2-((1H-indazol-5-yl)amino)-5-methyl-8-(cycloheptyl)pyrido[2,3-d]pyrimidin-7(8H)-one]	201 ± 77	

Second part, led by results:

IC50 (RSK4 kinase) [nM]	Structure (SMILES)	other results
39 ± 8	Cc1cc(=O)n(C2CCCC2)c2nc(Nc3cc(F)c4[nH]ncc4c3)ncc12 [Compound 009, 8-Cyclopentyl-2-((7-fluoro-1H-indazol-5-yl)amino)-5-methylpyrido[2,3-d]pyrimidin-7(8H)-one]	
30 ± 12	Cc1cc(=O)n(C2CCC(O)C2)c2nc(Nc3ccc4[nH]ncc4c3)ncc12 (stereo not drawn) [Compound 018, 2-((1H-indazol-5-yl)amino)-8-(3-hydroxycyclopentyl)-5-methylpyrido[2,3-d]pyrimidin-7(8H)-one]	
12 ± 3	Cc1cc(=O)n(C2CCCC2)c2nc(Nc3cc(F)c(O)c(F)c3)ncc12 [Compound 003, 8-Cyclopentyl-2-((3,5-difluoro-4-hydroxyphenyl)amino)-5-methylpyrido[2,3-d]pyrimidin-7(8H)-one]	IC50 (renal cancer cells ACHN): 3100 ± 110 nM; IC50 [1]: 3130 ± 1160 nM; IC50 [2]: 4080 ± 1120 nM
12 ± 2	Cc1cc(=O)n(C2CCC(F)(F)C2)c2nc(Nc3cnc4[nH]ncc4c3)ncc12 (stereo not drawn) [Compound 017, 2-((1H-pyrazolo[3,4-b]pyridin-5-yl)amino)-8-(3,3-difluorocyclopentyl)-5-methylpyrido[2,3-d]pyrimidin-7(8H)-one]	
17 ± 6	Cc1cc(=O)n(C2CCCC2)c2nc(Nc3ccc4c(c3)CC(=O)N4)ncc12 [Compound 007, 8-Cyclopentyl-5-methyl-2-((2-oxoindolin-5-yl)amino)pyrido[2,3-d]pyrimidin-7(8H)-one]	IC50 (renal cancer cells ACHN): 1940 ± 70 nM; IC50 [1]: 6150 ± 270 nM; IC50 [2]: 4650 ± 2110 nM
39 ± 4	Cc1cc(=O)n(C2CCCC2)c2nc(Nc3cnc4[nH]ncc4c3)ncc12 [Compound 013, 2-((1H-pyrazolo[3,4-b]pyridin-5-yl)amino)-8-cyclopentyl-5-methylpyrido[2,3-d]pyrimidin-7(8H)-one]	
44 ± 7	Cc1c(Br)c(=O)n(C2CCCC2)c2nc(Nc3ccc4[nH]ncc4c3)ncc12 [Compound 011, 2-((1H-indazol-5-yl)amino)-6-bromo-8-cyclopentyl-5-methylpyrido[2,3-d]pyrimidin-7(8H)-one]	
13 ± 3	Cc1cc(=O)n(C2CCC(F)(F)C2)c2nc(Nc3cc(F)c4[nH]ncc4c3)ncc12 (stereo not drawn) [Compound 016, 8-(3,3-Difluorocyclopentyl)-2-((7-fluoro-1H-indazol-5-yl)amino)-5-methylpyrido[2,3-d]pyrimidin-7(8H)-one]	IC50 (renal cancer cells ACHN): 870 ± 370 nM; IC50 [3]: 1700 ± 1430 nM
